# Assay results: patent publication US7575908B1, “Immobilization method for producing active α1-acid glycoprotein” (Board of Regents of the University of Nebraska, priority 2005, dated 2009)
# Columns and labels:
# Assay type in all cases: binding
# α1-acid glycoprotein [1] = assay: Self-competition zonal elution of R- and S-propranolol on immobilized α1-acid glycoprotein HPLC column; settings: pH 7.4 phosphate buffered saline, immobilized AGP column
# Method: (§1) The α1-acid glycoprotein and hydrazide-activated supports were downward slurry-packed at 28 MPa (4000 psi) into 50×4.1 mm I.D. stainless steel columns. These columns were enclosed in water jackets for temperature control. All studies, except those examining the temperature dependence of propranolol—α1-acid glycoprotein binding, were performed at 37° C. The mobile phases and packing solutions were prepared using pH 7.4 phosphate buffered saline (PBS, composition: 0.013 M potassium dihydrogen phosphate, 0.053 M disodium hydrogen phosphate and 0.133 M sodium chloride). Prior to use, all mobile phases were filtered through a 0.45 μm cellulose acetate filter and degassed under vacuum for 10 min. Elution of R- and S-propranolol was detected by monitoring the absorbance at 225 nm. Zonal elution studies were performed on the α1-acid glycoprotein column by applying pH 7.4 phosphate buffer solution containing up to 20 μM of the desired competing agent while making 20 μL injections of R-propranolol or S-propranolol onto the column. At each concentration of competing agent, three replicate injections of the desired analyte were made. The propranolol samples were prepared by dissolving 5.0 μM R- or S-propranolol in the appropriate mobile phase. All mobile phases containing propranolol were prepared using the individual enantiomers or propranolol. The flow rate ranged from 0.8 to 1.5 mL/min, with no significant changes in the retention factors being noted under this range of conditions.
# (§2) The retention times for propranolol were calculated using a B/A0.5 method. The column void volume was determined by making injections of sodium nitrate onto a column containing only hydrazide-activated silica while monitoring the absorbance at 205 nm. All elution times were corrected for the extra-column volume of the chromatographic system, as determined by making injections of R-propranolol or S-propranolol when no column was present. A correction for the small amount of non-specific binding between propranolol and the hydrazide support was made by measuring the retention factors for this drug on a column equivalent in size to the α1-acid glycoprotein column, but containing only hydrazide-activated silica. This was measured at each propranolol concentration in the mobile phase and accounted for 3-15% of the retention factors noted for propranolol on the α1-acid glycoprotein column. […] The column was stored in pH 7.4 PBS buffer at 4° C. when not in use.
# All of the results presented in Table 2 were generated by performing self-competition zonal elution studies at temperatures ranging from 5° C. to 37° C. in pH 7.4 phosphate buffered saline. The numbers in parentheses represent a range of ± one standard deviation.
# α1-acid glycoprotein [2] = assay: Retention of R- and S-propranolol on α1-acid glycoprotein column as a function of pH; settings: for decrease of retention factor: pH decreased from 7.4 to 4.8
# Method: as §1, §2
# The effect of other separation conditions such as pH were also evaluated. For instance, as the pH decreased from 7.4 to 4.8, the retention factor for R-propranolol decreased from 132 to 17.8 (87%), while the retention factor for S-propranolol decreased from 167 to 17.8 (89%).
# [3] = Effects of periodate oxidation on activity of immobilized α1-acid glycoprotein (chromatographic studies); settings: 37° C., pH 7.4 PBS
# Method: FIG. 2A illustrates an exemplary method for preparing oxidized α1-acid glycoprotein. The conditions chosen for this reaction vary according to the final degree of oxidation desired. […] This mixture was allowed to react for 10 to 15 minutes at room temperature in the dark and quenched by adding 0.25 mL ethylene glycol per milliliter of sample. After this new mixture had reacted for 2 minutes, it was put into a dialysis bag at 4° C. for 2 hours against 2 liters pH 7.0, 20 mM acetate buffer containing 0.15 M sodium chloride. This was followed by three additional two-hour dialysis cycles against 2 liter portions of pH 7.0, 0.10 M potassium phosphate buffer.
# Oxidized α1-acid glycoprotein was immobilized to hydrazide-activated silica by a procedure illustrated in FIG. 2C. In exemplary studies, a 5 mL portion of pH 7.0, 0.10 M phosphate buffer containing 1.5 mg/mL oxidized α1-acid glycoprotein was mixed with 0.03 grams of hydrazide-activated silica. This mixture was sonicated under aspirator vacuum for 10 minutes to remove any air bubbles from the suspension. It was then placed onto a shaker and allowed to react at 4° C. for up to seven days, with more than two days being optimum. The reaction was stopped by centrifuging the reaction mixture and removing the supernatant. The support was next washed several times with pH 7.0, 0.10 M phosphate buffer, followed by several additional washings with deionized water. Any hydrazide groups remaining on this support were removed by adding a 200-fold excess of glyceraldehyde versus the support's original hydrazide content. This mixture was shaken at 4° C. for 6 hours. The support was then washed several times with pH 7.0, 0.10 M phosphate buffer. The amount of immobilized α1-acid glycoprotein was determined by comparing the final and initial concentrations of α1-acid glycoprotein in the reaction slurry, using absorbance measurements at 280 nm.
# as §1
# The retention times for propranolol were calculated using a B/A0.5 method. The column void volume was determined by making injections of sodium nitrate onto a column containing only hydrazide-activated silica while monitoring the absorbance at 205 nm. All elution times were corrected for the extra-column volume of the chromatographic system, as determined by making injections of R-propranolol or S-propranolol when no column was present. […]
# [4] = AGP oxidized with 10 mM periodate
# [5] = AGP oxidized with 20 mM periodate
# [6] = AGP oxidized with 50 mM periodate
Molecule,"Association equilibrium constant, Ka (α1-acid glycoprotein [1]; 5° C.)","Association equilibrium constant, Ka (α1-acid glycoprotein [1]; 15° C.)","Association equilibrium constant, Ka (α1-acid glycoprotein [1]; 25° C.)","Association equilibrium constant, Ka (α1-acid glycoprotein [1]; 37° C.)","retention factor (α1-acid glycoprotein [2]; pH 4.8, AGP column)","retention factor (α1-acid glycoprotein [2]; pH 7.4, AGP column)",decrease of retention factor (α1-acid glycoprotein [2]) [%],"Binding capacity [3, 4]","Specific activity [3, 4]","Binding capacity [3, 5]","Specific activity [3, 5]","Binding capacity [3, 6]","Specific activity [3, 6]"
CC(C)NCC(O)COc1cccc2ccccc12 (centres unmarked) [S-Propranolol],11 (±3) × 10^6 M^−1,9 (±2) × 10^6 M^−1,5.2 (±1.7) × 10^6 M^−1,4.2 (±0.3) × 10^6 M^−1,17.8,167,89,–,–,–,–,–,–
CC(C)NC[C@@H](O)COc1cccc2ccccc12 [R-Propranolol],8 (±2) × 10^6 M^−1,7 (±1) × 10^6 M^−1,3.9 (±0.2) × 10^6 M^−1,2.7 (±0.2) × 10^6 M^−1,17.8,132,87,–,–,–,–,–,–
α1-acid glycoprotein [AGP],–,–,–,–,–,–,–,6.8 (±0.2) mg/g silica,0.67 (±0.02) mg/mg AGP,6.3 (±0.3) mg/g silica,0.40 (±0.02) mg/mg AGP,6.8 (±0.3) mg/g silica,0.47 (±0.03) mg/mg AGP
